# In PubChem BioAssay (NCI):
#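 Test compounds were applied to cells in 96-well plates for 48 hours at 5 doses. Abbreviation: GI50, concentration required for 50% inhibition of growth. TGI marks complete inhibition of growth.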
# How the values were obtained:
# Experiment in all cases: growth of human tumour cells (NCI), 48 h
# COLO 205 colon = system: COLO 205 colon
# 786-0 renal = system: 786-0 renal
# SW-620 colon = system: SW-620 colon
# A549 NSCLC = system: A549 NSCLC
# NCI/ADR-RES ovarian = system: NCI/ADR-RES ovarian
# LOX IMVI melanoma = system: LOX IMVI melanoma
# SF-295 CNS = system: SF-295 CNS
# SF-268 CNS = system: SF-268 CNS
# K-562 leukemia = system: K-562 leukemia
# HCC-2998 colon = system: HCC-2998 colon
# SK-OV-3 ovarian = system: SK-OV-3 ovarian
# OVCAR-3 ovarian = system: OVCAR-3 ovarian
# CAKI-1 renal = system: CAKI-1 renal
# MDA-MB-435 = system: MDA-MB-435
# T-47D breast = system: T-47D breast
# U251 CNS = system: U251 CNS
# DU-145 prostate = system: DU-145 prostate
# HOP-62 NSCLC = system: HOP-62 NSCLC
# CCRF-CEM leukemia = system: CCRF-CEM leukemia
# KM12 colon = system: KM12 colon
# OVCAR-8 ovarian = system: OVCAR-8 ovarian
# PC-3 prostate = system: PC-3 prostate
# MCF7 breast = system: MCF7 breast
# HCT-116 colon = system: HCT-116 colon
# HT29 colon = system: HT29 colon
# NCI-H226 lung = system: NCI-H226 lung
# MOLT-4 leukemia = system: MOLT-4 leukemia
# UACC-257 melanoma = system: UACC-257 melanoma
# OVCAR-5 ovarian = system: OVCAR-5 ovarian
# NCI-H23 lung = system: NCI-H23 lung
# UACC-62 melanoma = system: UACC-62 melanoma
# SNB-75 CNS = system: SNB-75 CNS
# TK-10 renal = system: TK-10 renal
# HL-60(TB) leukemia = system: HL-60(TB) leukemia
# HS 578T breast = system: HS 578T breast
# MALME-3M melanoma = system: MALME-3M melanoma
# HCT-15 colon = system: HCT-15 colon
# EKVX NSCLC = system: EKVX NSCLC
# UO-31 renal = system: UO-31 renal
# IGROV1 ovarian = system: IGROV1 ovarian
# SNB-19 CNS = system: SNB-19 CNS
# SN12C renal = system: SN12C renal
# SK-MEL-28 melanoma = system: SK-MEL-28 melanoma
# BT-549 breast = system: BT-549 breast
# ACHN renal = system: ACHN renal
# SK-MEL-5 melanoma = system: SK-MEL-5 melanoma
# HOP-92 NSCLC = system: HOP-92 NSCLC
# RXF 393 renal = system: RXF 393 renal
# A498 renal = system: A498 renal
# MDA-MB-231 breast = system: MDA-MB-231 breast
# SF-539 CNS = system: SF-539 CNS
# OVCAR-4 ovarian = system: OVCAR-4 ovarian
# SR leukemia = system: SR leukemia
# NCI-H460 lung = system: NCI-H460 lung
# SK-MEL-2 melanoma = system: SK-MEL-2 melanoma
smiles,measurement,setting,value
CN(C)S(=O)(=O)c1ccc(-c2nc(C(Cl)Cl)nc3cc(-c4ccc(F)cc4)nn23)cc1,GI50,COLO 205 colon,1.62 µM
same,TGI,COLO 205 colon,4.23 µM
same,GI50,786-0 renal,9.42 µM
same,TGI,786-0 renal,> 100 µM
same,GI50,SW-620 colon,0.891 µM
same,TGI,SW-620 colon,3.31 µM
same,GI50,A549 NSCLC,1.88 µM
same,TGI,A549 NSCLC,5.7 µM
same,GI50,NCI/ADR-RES ovarian,1.01 µM
same,TGI,NCI/ADR-RES ovarian,4.66 µM
same,GI50,LOX IMVI melanoma,1.15 µM
same,TGI,LOX IMVI melanoma,6.36 µM
same,GI50,SF-295 CNS,1.77 µM
same,TGI,SF-295 CNS,6.66 µM
same,GI50,SF-268 CNS,2.58 µM
same,TGI,SF-268 CNS,11.1 µM
same,GI50,K-562 leukemia,0.929 µM
same,TGI,K-562 leukemia,> 100 µM
same,GI50,HCC-2998 colon,1.43 µM
same,TGI,HCC-2998 colon,2.92 µM
same,GI50,SK-OV-3 ovarian,2.15 µM
same,TGI,SK-OV-3 ovarian,7.79 µM
same,GI50,OVCAR-3 ovarian,1.67 µM
same,TGI,OVCAR-3 ovarian,4.01 µM
same,GI50,CAKI-1 renal,1.53 µM
same,TGI,CAKI-1 renal,4.71 µM
same,GI50,MDA-MB-435,1.32 µM
same,TGI,MDA-MB-435,3.12 µM
same,GI50,T-47D breast,3.7 µM
same,TGI,T-47D breast,56.9 µM
same,GI50,U251 CNS,1.05 µM
same,TGI,U251 CNS,2.98 µM
same,GI50,DU-145 prostate,1.59 µM
same,TGI,DU-145 prostate,6.27 µM
same,GI50,HOP-62 NSCLC,2.08 µM
same,TGI,HOP-62 NSCLC,8.37 µM
same,GI50,CCRF-CEM leukemia,1.87 µM
same,TGI,CCRF-CEM leukemia,> 100 µM
same,GI50,KM12 colon,1.56 µM
same,TGI,KM12 colon,4.88 µM
same,GI50,OVCAR-8 ovarian,1.74 µM
same,TGI,OVCAR-8 ovarian,7.58 µM
same,GI50,PC-3 prostate,2.25 µM
same,TGI,PC-3 prostate,8.56 µM
same,GI50,MCF7 breast,2.46 µM
same,TGI,MCF7 breast,> 100 µM
same,GI50,HCT-116 colon,0.986 µM
same,TGI,HCT-116 colon,3.22 µM
same,GI50,HT29 colon,0.494 µM
same,TGI,HT29 colon,2.15 µM
same,GI50,NCI-H226 lung,2.77 µM
same,TGI,NCI-H226 lung,25.6 µM
same,GI50,MOLT-4 leukemia,0.888 µM
same,TGI,MOLT-4 leukemia,> 100 µM
same,GI50,UACC-257 melanoma,3.15 µM
same,TGI,UACC-257 melanoma,16.6 µM
same,GI50,OVCAR-5 ovarian,2.23 µM
same,TGI,OVCAR-5 ovarian,7.89 µM
same,GI50,NCI-H23 lung,1.45 µM
same,TGI,NCI-H23 lung,3.4 µM
same,GI50,UACC-62 melanoma,1.3 µM
same,TGI,UACC-62 melanoma,2.94 µM
same,GI50,SNB-75 CNS,5.37 µM
same,TGI,SNB-75 CNS,56.4 µM
same,GI50,TK-10 renal,3.11 µM
same,TGI,TK-10 renal,13.1 µM
same,GI50,HL-60(TB) leukemia,1.3 µM
same,TGI,HL-60(TB) leukemia,> 100 µM
same,GI50,HS 578T breast,2.63 µM
same,TGI,HS 578T breast,7.33 µM
same,GI50,MALME-3M melanoma,1.86 µM
same,TGI,MALME-3M melanoma,4.05 µM
same,GI50,HCT-15 colon,1.13 µM
same,TGI,HCT-15 colon,5.08 µM
same,GI50,EKVX NSCLC,1.94 µM
same,TGI,EKVX NSCLC,5 µM
same,GI50,UO-31 renal,2.14 µM
same,TGI,UO-31 renal,7.26 µM
same,GI50,IGROV1 ovarian,1.44 µM
same,TGI,IGROV1 ovarian,4.65 µM
same,GI50,SNB-19 CNS,2.28 µM
same,TGI,SNB-19 CNS,10.9 µM
same,GI50,SN12C renal,2.18 µM
same,TGI,SN12C renal,27.7 µM
same,GI50,SK-MEL-28 melanoma,2.01 µM
same,TGI,SK-MEL-28 melanoma,5.4 µM
same,GI50,BT-549 breast,2.29 µM
same,TGI,BT-549 breast,9.99 µM
same,GI50,ACHN renal,0.925 µM
same,TGI,ACHN renal,3.61 µM
same,GI50,SK-MEL-5 melanoma,1.97 µM
same,TGI,SK-MEL-5 melanoma,4.22 µM
same,GI50,HOP-92 NSCLC,1.79 µM
same,TGI,HOP-92 NSCLC,5.75 µM
same,GI50,RXF 393 renal,1.4 µM
same,TGI,RXF 393 renal,3.87 µM
same,GI50,A498 renal,1.76 µM
same,TGI,A498 renal,8.32 µM
same,GI50,MDA-MB-231 breast,1.75 µM
same,TGI,MDA-MB-231 breast,6.28 µM
same,GI50,SF-539 CNS,2.15 µM
same,TGI,SF-539 CNS,7.55 µM
same,GI50,OVCAR-4 ovarian,2.4 µM
same,TGI,OVCAR-4 ovarian,8.14 µM
same,GI50,SR leukemia,0.32 µM
same,TGI,SR leukemia,> 100 µM
same,GI50,NCI-H460 lung,1.68 µM
same,TGI,NCI-H460 lung,4.32 µM
same,GI50,SK-MEL-2 melanoma,2.89 µM
same,TGI,SK-MEL-2 melanoma,9.35 µM
